Test results: ChEMBL document CHEMBL1140843, “Discovery of new inhibitors of D-alanine:D-alanine ligase by structure-based virtual screening” (J Med Chem, 2008)
Values after ≈ are worked out from the molar mass of the structure shown. Active and inactive are the calls of the source. The calls are words filed in the database; no cut-off is given here.

Key:
[1] = Inhibition of Escherichia coli DdlB
Escherichia coli [2] = assay: Inhibition of Escherichia coli DdlB at 250 uM preincubated for 15 mins before substrate addition measured after 20 mins
Escherichia coli [3] = assay: Antibacterial activity against Escherichia coli SM1411 after 16 hrs broth microdilution method; format: functional
Staphylococcus aureus = assay: Antibacterial activity against Staphylococcus aureus 8325-4 after 16 hrs broth microdilution method; format: functional; details: 8325-4, 16 h
Escherichia coli [4] = assay: Antibacterial activity against Escherichia coli 1411 after 16 hrs broth microdilution method; format: functional

Q: For `C[C@@H](N)C(=O)NP(=O)(O)O`, which Ki [1] is on record?
A: 50 µM

Q: With `N[C@@H]1CONC1=O` [CYCLOSERINE] as the compound, how does the Ki [1] read?
A: 22 µM

Q: With `C/C(O)=C(\C#N)C(=O)Nc1cc(Br)ccc1Br` as the compound, how does the Ki [1] read?
A: 185 µM

Q: What does the source list for `COc1ccc2c(c1)c1c(C)c3cnccc3c(C)c1n2CCCN`?
A: Activity (Escherichia coli [2]): Active; MIC (Escherichia coli [3]): 8 µg/mL (≈ 24 µM); MIC (Staphylococcus aureus): 32 µg/mL (≈ 96 µM); Ki [1]: 11 µM; MIC (Escherichia coli [4]): 32 µg/mL (≈ 96 µM)

Q: For `N[C@@H](C[C@H]1C[C@]1(C(=O)O)c1ccccc1)C(=O)O`, which Ki [1] is on record?
A: 12.5 µM

Q: With `COc1ccc2nc3cc(Cl)ccc3c(Nc3ccc(O)c(CN4CCN(C)CC4)c3)c2c1` as the compound, how does the Activity (Escherichia coli [2]) read?
A: Active

Q: What about the MIC (Escherichia coli [3]) of the same compound?
A: 64 µg/mL (≈ 138 µM)

Q: And the MIC (Staphylococcus aureus)?
A: 32 µg/mL (≈ 69.1 µM)

Q: What about the Ki [1] of the same compound?
A: 218 µM

Q: For `O=C(/N=N/C(=O)Nc1ccc(Cl)cc1)NCc1cccnc1`, which Ki [1] is on record?
A: 33 µM

Q: With `CS[C@@H](CP(=O)(O)[C@@H](C)N)C(=O)O` as the compound, how does the Ki [1] read?
A: 4 µM

Q: With `CC(C)(CCl)C(=O)Nc1ccc(C(F)(F)F)cc1` as the compound, how does the Ki [1] read?
A: 4 µM
